Earlier results on one compound are cited in patent publication US20040204492A1, “Topical composition and method for treating seborrheic dermatitis” (Healthpoint, Ltd., priority 2003, published 2004).

Molecules are shown by their SMILES.

In the data set the test system is sulfonamide sensitive gram-positive and gram-negative microorganisms. The note with it: microorganisms commonly isolated from secondary cutaneous infections.

As for `CC(=O)NS(=O)(=O)c1ccc(N)cc1.O.[Na]` [Sulfacetamide sodium, Acetamide N-[(4-aminophenyl)sulfonyl]-, monosodium salt, monohydrate], the bacteriostatic effect entry is listed as “exerts a bacteriostatic effect”.
